Laboratory results as given in US9598386B2, “Immunomodulatory compounds” (University of Strathclyde, priority 2012, dated 2017).
Where a name gives a salt, the structure may show the parent alone.

Experiments:
[1] = test system: Peritoneal-derived mast cells (PDMC); assay: Mast cell degranulation after FcεRI crosslinking; assay type: cell-based; details: pre-treated during IgE sensitisation, measured 1 h after FcεRI crosslinking; FIG. 2
Protocol: (§1) Peritoneal-derived mast cells (PDMC; panels A & D) or bone marrow-derived mast cells (BMM; B, C, E & F) were pre-treated with the indicated concentrations of S3 and S5 (μg/ml) during the IgE sensitisation phase and then degranulation measured 1 h (A & D) following crosslinking of the IgE-bound FcεRI receptors (XL) or not (Basal). Alternatively TNFα (B & E) or IL-6 (C & F) release was measured 24 h following FcεRI crosslinking. Data are presented as means±SD where n=3 and analysis is by 1-way ANOVA and Newman-Keuls post test where ***p<0.001.
(§2) S3 and S5 were also tested for their effects on another immune system cell type, the mast cell. Similar to macrophages, activation of mast cells for example via the high-affinity receptor for IgE results in degranulation, resulting in release of inflammatory mediators, and secretion of various cytokines.

[2] = test system: bone marrow-derived mast cells (BMM); assay: Mast cell cytokine release after FcεRI crosslinking; assay type: cell-based; details: pre-treated during IgE sensitisation, 24 h after FcεRI crosslinking; FIG. 2
Protocol: as §1, §2

[3] = test system: mouse model of asthma, ovalbumin-induced airway hypersensitivity; assay: Ovalbumin-induced airway hypersensitivity (OAH) mouse model of asthma; assay type: in vivo; details: for lung pathology (H & E staining of lung tissue) / eosinophil influx into the lungs (BALF): prophylactic treatment; for lung pathology (H & E staining of lung tissue): FIG. 3A; for eosinophil influx into the lungs (BALF): FIG. 3B; for neutrophil influx into the lungs (BALF): therapeutic treatment, FIG. 3C
Protocol: As a consequence of the mast cell findings S3 and […] were tested in a mouse model of asthma, ovalbumin-induced airway hypersensitivity (OAH). As can be shown in FIG. 3, both sulfones are able to inhibit infiltration of disease-causing eosinophils into the lungs and also overall lung pathology.

[4] = test system: DBA/1 mice undergoing CIA; assay: Collagen-induced arthritis (CIA) mouse model of rheumatoid arthritis; assay type: in vivo; details: prophylactic treatment, 1 μg/dose at d-2, d0 and d21, versus PBS; FIG. 1
Protocol: DBA/1 mice undergoing CIA (PBS) were treated with SMAs S3 (1 μg/dose; S3-1) and S5 (1 μg/dose; S5-1) at d-2, d0 and d21 and monitored every second day for (A) articular score; (B) paw swelling; (C) incidence of CIA (articular score>2) and (D) incidence of severe pathology (articular score >4). Data in A & B are presented as mean values±SEM where PBS, n=28, S3, n=14 and S5, n=13 individual mice, except at d33 and d35 where PBS, n=14, S3, n=7 and S5, n=7 individual mice, and analysis was by Mann-Whitney test and *p<0.05, **p<0.01 and ***p<0.001 where blue * and black * represent PBS versus S3-1 and S5-1, respectively.

Row | melting point [°C] | Compound | other results
1 | 92 to 93 | Cc1ccc(CS(=O)(=O)CCCN2CCOCC2)cc1 [S19, 4-{3-[(4-methylbenzyl)sulfonyl]propyl}morpholine] | 
2 | 90 to 92 | O=S(=O)(CCN1CCCC1)Cc1ccc(Br)cc1 [S9, 1-{2-[(4-bromobenzyl}sulfonyl]ethyl}pyrrolidine] | 
3 | 187 to 188 | C[N+](C)(C)CCS(=O)(=O)Cc1ccc(Br)cc1 (as salt: methane sulfonate) [S1, N,N.N-trimethyl-2-1(4-bromobenzyl)sulfonyl{ethanaminiummethane sulfonate] | 
4 | 181 to 183 | Cc1ccc(CS(=O)(=O)CCC[N+]2(C)CCOCC2)cc1.[I-] [S22, 4-methyl-4-{3-[(4-methylbenzyl)sulfonyl]propyl}morpholin-4-ium iodide] | 
5 | 214 to 216 | Cc1ccc(CS(=O)(=O)CC[N+]2(C)CCCC2)cc1.[I-] [S8, 1-Methyl-1-{2-[(4-methylbenzyl)sulfonyl]ethyl}pyrrolidinium iodide] | 
6 | 196 to 198 | C[N+]1(CCS(=O)(=O)Cc2ccc(Br)cc2)CCCC1.[I-] [S10, 1-Methyl-1-{2-[(4-bromobenzyl)sulfonyllethyl]}pyrrolidinium iodide] | 
7 | 72 to 74 | O=S(=O)(CCN1CCOCC1)Cc1ccc(F)cc1 [S28, 4-{2-[(4-Fluorobenzyl)sulfonyl]ethyl}morpholine] | 
8 | 68 to 70 | Cc1ccc(CS(=O)(=O)CCN(C)C)cc1 [S4, N,N-Di methyl-2-[(4-methylbenzyl)sulfonyl]ethanamine] | 
9 | 74 to 76 | O=S(=O)(CCN1CCOCC1)Cc1cccc(F)c1 [S25, 4-{2-[(3-Fluorobenzyl)sulfonyl]ethyl}morpholine] | 
10 | 50 to 52 | CN(C)CCS(=O)(=O)Cc1ccc(F)cc1 [S27, N-{2-[(4-Fluorobenzyl)sulfonyl]ethyl}-N,N-dimethylamine] | 
11 | 84 to 86 | Cc1ccc(CS(=O)(=O)CCCN2CCCC2)cc1 [S20, 1-{3-[(4-Methylbenzyl)sulfonyl]propyl}-pyrrolidine] | 
12 | 212 to 214 | Cc1ccc(CS(=O)(=O)CC[N+](C)(C)C)cc1.[I-] [S5, N,N,N-trimethyl-2-[(4-methylbenzyl)sulfonyl]ethanaminium iodide] | mast cell degranulation [1]: suppressing degranulation; secretion of IL-6 by mast cells [2]: inhibiting secretion; secretion of TNF-α by mast cells [2]: inhibiting secretion; lung pathology (H & E staining of lung tissue) [3]: inhibits lung pathology; eosinophil influx into the lungs (BALF) [3]: inhibits; neutrophil influx into the lungs (BALF) [3]: inhibits neutrophil influx; development of arthritis (articular score, paw swelling, incidence) [4]: significantly suppressed the development of arthritis
13 | 76 to 78 | O=S(=O)(CCN1CCCC1)Cc1ccc(F)cc1 [S29, 1-{2-[(4-Fluorobenzyl)sulfonyl]ethyl}pyrrolidine] | 
14 | 84 to 86 | Cc1ccc(CS(=O)(=O)CCN2CCCC2)cc1 [S7, 1-(2-[(4-Methylbenzyl)sulfonyl]ethyl)pyrrolidine] | 
15 | 66 to 68 | O=S(=O)(CCN1CCCC1)Cc1cccc(F)c1 [S26, 1-{2-[(3-Fluorobenzyl)sulfonyl]ethyl}pyrrolidine] | 
16 | 58 to 60 | CN(C)CCS(=O)(=O)Cc1ccc(Br)cc1 [S3, N-{2-[(4-Bromobenzyl)sulfonyl]ethyl}-N,N-dimethylamine] | mast cell degranulation [1]: suppressing degranulation; secretion of IL-6 by mast cells [2]: inhibiting secretion; secretion of TNF-α by mast cells [2]: inhibiting secretion; lung pathology (H & E staining of lung tissue) [3]: inhibits lung pathology; eosinophil influx into the lungs (BALF) [3]: inhibits; neutrophil influx into the lungs (BALF) [3]: inhibits neutrophil influx; development of arthritis (articular score, paw swelling, incidence) [4]: significantly suppressed the development of arthritis
